Assays:
[1] = microbe, parasite or virus in culture; settings: Mycobacterium tuberculosis, 72 h, read-out: pIC50 (converted)
[2] = microbe, parasite or virus in culture; settings: Mycobacterium tuberculosis, 96 h, read-out: pIC50 (converted)

Row | Structure (SMILES) | IC50 [1] [µM] | IC50 [2] [µM]
1 | O=C(c1cc(C2CC2)on1)N1CC(O)(C2CC2)C1 | 47.3 | 44.5
2 | CN1CCC(N(C)CCC(=O)N2CCC(Cc3ccc(F)cc3)CC2)C1 (stereo not given) | 22 | > 50.1
3 | FC(F)(F)c1ccc(OC2CCNCC2)nc1 | 189 | 230
4 | CN(C)CC(=O)N1CCC2(CCc3cc(-c4cccnc4)ccc32)CC1 | > 50.1 | > 50.1
5 | CC(C)Oc1ccc(C(CN)N(C)C)cc1 (stereo not given) | 133 | 225
6 | COc1ccnc(N2CCCN(c3nc(C4CC4)ns3)CC2)n1 | > 50.1 | > 50.1
7 | CCn1ccc(C(=O)NCc2ccco2)n1 | 232 | > 501
8 | FC(F)(F)c1ccccc1CN1CCOC[C@H](Oc2cccnc2)C1 | 48 | 18.7
9 | CC(C)(C)c1noc(CCC(=O)N2CCSCC2)n1 | > 501 | > 501
10 | Cc1ccc(S(=O)(=O)CCC(=O)NC(N)=O)cc1 | 155 | > 501
11 | CCOCCC(=O)N1CCN(c2ccc(F)cc2)CC1 | 11.3 | 129
12 | CN(CCc1ccccc1)Cc1nc(Cc2cccc(F)c2)no1 | 2.69 | 33.8
13 | Fc1cc(Cl)cnc1N1CCCNCC1 | 34.3 | > 501
14 | CS(=O)(=O)NCCc1csc(N2CCCC2)n1 | 132 | > 501
15 | Fc1ccc(C(NCc2nnc(-c3ccco3)o2)C2CCC2)cc1 (stereo not given) | 0.884 | 4.62
16 | NC(=O)c1ccccc1NC(=O)CSc1ccccn1 | 116 | > 501
17 | CCC(N)c1ccccc1OC (stereo not given) | 267 | > 501
18 | O=C(c1ccno1)N1CCOC[C@H](Oc2ccc(C(F)(F)F)cc2)C1 | > 50.1 | > 50.1
19 | COc1ccc(N2CCCN(CCC(N)=O)CC2)cc1 | 345 | 240
20 | COc1ccc(C)cc1CN1CCn2cccc2C1C (stereo not given) | 18.5 | 45.6
21 | C=C(C)CN1CCC(NC(=O)N2CCSCC2)CC1 | > 501 | > 501
22 | Cc1nsc(C(=O)NCCc2ccc(Cl)cc2)n1 | 19.4 | 12.7
23 | CC(c1ccccc1)N(C)C(=O)CN1CCCc2cccc(F)c21 (stereo not given) | 31.2 | > 50.1
24 | CC(CNC(=O)c1ccncc1)c1ccccc1 (stereo not given) | 189 | > 501
25 | CN(C)S(=O)(=O)NC1CCCOc2c(Cl)cccc21 (stereo not given) | > 501 | > 501
26 | CCNC(=O)NC(c1ccc2c(c1)OCCO2)C(C)C (stereo not given) | > 501 | > 501
27 | CCCC1C=CCN1C(=O)c1cc(COc2ccc3c(c2)OCO3)[nH]n1 (stereo not given) | > 50.1 | 11.8

Row | Structure (SMILES) | IC50 [1] [µM] | IC50 [2] [µM]
28 | O=C(NCc1ccc2c(c1)OCO2)N1CCCCC1 | 139 | 43.3
29 | CNC(=O)COc1cccc(OCC2CC2)c1 | > 501 | 188
30 | CCn1ccc(C(=O)NC(C)c2ccccc2)n1 (stereo not given) | 84.4 | 182
31 | CN(Cc1ccccc1)CC1(O)CCCN(CCC2CCCCC2)C1=O (stereo not given) | > 50.1 | > 50.1
32 | NCCNS(=O)(=O)c1ccc(F)c(Br)c1 | > 501 | > 501
33 | OC(CN1CCn2ccnc2C1)c1cccc(F)c1 (stereo not given) | > 501 | > 501
34 | CC(C)CC(C(=O)N(C)Cc1ncnn1C)N1CCCCC1=O (stereo not given) | > 50.1 | > 50.1
35 | CCS(=O)(=O)NCC(N)c1ccc(C(C)C)cc1 (stereo not given) | 85.8 | 211
36 | CCN1CCN(C(=O)C2CCCOC2)c2ccccc21 (stereo not given) | 158 | 276
37 | CC1CN(CCC(=O)NCc2cccs2)CCCO1 (stereo not given) | > 501 | > 501
38 | CN(CC(N)=O)Cc1ccccc1N1CCCC1 | 278 | > 501
39 | COC(=O)N1CCC(Nc2nnc(C(F)(F)F)s2)CC1 | 160 | 230
40 | c1cc2c(cc1CNc1nnc(C3CC3)o1)OCCO2 | 151 | 179
41 | OCC1CCCN1c1cc(N2CCC(OC3CCCC3)CC2)ncn1 (stereo not given) | 15.5 | 13.8
42 | COc1ccc(CN(C(=O)C2CCCS2)c2ccncc2)cc1 (stereo not given) | > 50.1 | > 50.1
43 | CC(C)COCC(O)Cn1nnc(-c2ccco2)n1 (stereo not given) | 88.9 | 12.9
44 | CC(C)c1nsc(NC2CCOC3(CCCC3)C2)n1 (stereo not given) | 12 | 6.74
45 | CN(C)C(=O)c1csc2c1CCCC2 | 271 | 186
46 | CCOCC(=O)NC(C)c1c(F)cccc1OC (stereo not given) | 178 | 277
47 | O=C(Nc1nc(-c2ccsc2)ns1)C1CCCN1 (stereo not given) | > 501 | > 501
48 | CSCc1cccc(CNC(=O)c2cc[nH]n2)c1 | 308 | > 501
49 | CCN(CCS(=O)(=O)c1ccccc1)CC(=O)N(C)C | 130 | 126
50 | NCc1ccnc(OCC(F)(F)F)c1 | 50 | 88.7
51 | COc1ccc(C)cc1CCN | 272 | 277
52 | CCOCC(=O)NCC1(O)CCCc2ccccc21 (stereo not given) | 83.9 | 231
53 | COc1ccc(CSCC(N)=O)cc1Br | 241 | 262
54 | CSC1=Nc2c(cnn2-c2ccc(C)cc2)C2=NCCCN12 | 0.957 | > 50.1

Row | Structure (SMILES) | IC50 [1] [µM] | IC50 [2] [µM]
55 | CC(C)c1nnc2n1CCN(C(=O)c1ccc(-n3cnnc3)cc1)C2 | > 50.1 | > 50.1
56 | CC(=O)N1CCCC1c1cccc(Cc2ccccc2F)n1 (stereo not given) | 29.2 | 39
57 | O=C(CCc1ccc(Br)cc1)NCCc1nnc[nH]1 | > 50.1 | > 50.1
58 | CN(C)C(CN)c1ccc(F)cc1 (stereo not given) | 244 | > 501
59 | CC(=O)c1sc(NCCc2ccccn2)nc1C | > 501 | > 501
60 | COCCN1CCCN(C(=O)c2cc(Cl)c[nH]2)CC1 | 195 | > 501
61 | CCCc1cncnc1N1CCC(NCc2cc3ccccc3[nH]2)CC1 | 18.3 | 18.3
62 | CC(C)c1ccccc1OCC(O)CN(C)CCO (stereo not given) | 123 | 257
63 | Cc1cnc(C(=O)NCCSCc2ccco2)cn1 | > 501 | > 501
64 | Cc1ccc(C(=O)N2CCN(c3nccs3)CC2)o1 | 157 | 183
65 | Cc1ccc(F)c(CN2CC[C@H](N)C2)c1 | 213 | 225
66 | CC(Cn1cccn1)NCc1csc(-c2ccccc2F)n1 (stereo not given) | 10.4 | 4.59
67 | COc1cc(Oc2ncccc2C(F)(F)F)ccc1CN1CCCC1 | > 50.1 | 21
68 | CCc1noc(CNc2cc3c(cc2Cl)OCCCO3)n1 | > 50.1 | > 50.1
69 | COc1ccc(-c2cccc(-c3ccn(CCN(C)C)n3)c2)nn1 | 19.9 | 16.3
70 | CC(NC(=O)CNc1cc(F)cc(Br)c1)C(=O)N(C)C (stereo not given) | 289 | > 501
71 | COc1cc(C(=O)N(Cc2cccs2)C2CC2)cc2c1OCCO2 | > 50.1 | > 50.1
72 | CC(N)c1noc(-c2ccc(Cl)cc2)n1 (stereo not given) | 261 | 375
73 | NCC1CCCN(c2ncccn2)C1 (stereo not given) | 288 | > 501
74 | Fc1ccc(CSc2nnnn2CC2CCCO2)cc1 (stereo not given) | 39 | 80.8
75 | COc1cccc(-c2noc(-c3ccc(NCC(C)O)nc3)n2)c1OC (stereo not given) | > 50.1 | 19.4
76 | CCc1ccc(CN(CCCn2ccnc2)Cc2ccc(C)s2)o1 | 37.5 | 36.8
77 | Cc1ccc(NC(C)C(=O)NCc2cccs2)cc1Cl (stereo not given) | 5.25 | 5.63
78 | Cc1nn2c(NCC(=O)NC3CC3)cc(-c3ccccc3)nc2c1C | 13.4 | 12.1
79 | CCNC1=NN=C(c2ccc(OC)c(F)c2)CS1 | 137 | 134
80 | Cc1cc(C)cc(NC(=O)CNCCCO)c1 | > 501 | > 501
81 | COc1ccc(CCNc2ccc3nnnn3n2)cc1 | > 501 | > 501

Row | Structure (SMILES) | IC50 [1] [µM] | IC50 [2] [µM]
82 | CNC(=O)Nc1ccc(OC)c(OCCOC)c1 | 138 | 219
83 | CN(C)S(=O)(=O)c1cc2c(cc1Cl)OCCO2 | 209 | > 501
84 | COCCN1CCCC(Nc2ccc(Cl)cn2)C1 (stereo not given) | 145 | 172
85 | COC(=O)CCCC(=O)N1CCCc2ccc(F)cc21 | 213 | 277
86 | O=C1c2ccccc2OCC1CN1CCOCC1 (stereo not given) | 266 | > 501
87 | COc1cccc(C(=O)N2CCOC3(CCCN(C(C)=O)C3)C2)c1 (stereo not given) | > 50.1 | > 50.1
88 | Cn1cc(CNC(=O)c2cccc(I)c2)cn1 | 166 | 70.2
89 | O=S(=O)(NC1CCCC1)c1cncc(Cl)c1 | 226 | > 501
90 | Nc1cnn(Cc2ccccn2)c1 | 206 | > 501
91 | COCCSCc1cccc(NC(=O)C(C)N)c1 (stereo not given) | 119 | > 501
92 | CCNc1nnc(SC(C)C)s1 | 120 | 54.2
93 | NC(=O)C(Sc1nncs1)c1ccc(Br)cc1 (stereo not given) | 412 | 266
94 | COc1ccc(Br)c(CN)c1 | 116 | 184
95 | NCc1nc(-c2ccc(Cl)cc2)c[nH]1 | 128 | 264
96 | Cc1ncc(CN(C)CC(O)COCc2ccco2)s1 (stereo not given) | > 501 | > 501
97 | FC(F)(F)Sc1ccc(NCc2nnc(C3CC3)o2)cc1 | 36.4 | 14.3
98 | CCCn1nnc(NC(=O)c2ccccc2F)n1 | 59.9 | > 501
99 | CN(C)c1cc(C(=O)Nc2ccccc2C(=O)NC(C)(C)C)ccn1 | > 50.1 | > 50.1
100 | Nc1nnnn1NCc1cccc(Cl)c1Cl | > 50.1 | > 50.1
101 | NC(=O)C1CCN(C(=O)COc2ccc(F)cc2Br)C1 (stereo not given) | > 501 | > 501
102 | CCOC(=O)N1CCN(Cc2nc(C3CC3)no2)CC1 | 93.9 | 109
103 | NC1CCCN(S(=O)(=O)C=Cc2cccc(Cl)c2)C1 (stereo not given) | 216 | 257
104 | COc1cccc(CNCCNc2cccc(C)n2)c1 | 248 | > 501
105 | O=C(NCCn1cccc1)c1ccc(Cl)cn1 | 57.9 | 52.9

Source: ChEMBL document CHEMBL3988442, “University of Dundee, Small-Polar-MMV Screening Library” (2021)
